Experimental data as given in patent US7714150B2, “Aminoalkyl-amidomethyl-substituted 2-(4-sulphonylamino)-3-hydroxy-3,4-dihydro-2H-chroman-6-yl derivatives” (Solvay Pharmaceuticals GmbH, priority 2005, dated 2010).

Key:
[1] = tested on: left atrium of rats' hearts; assay: Functional refractory period prolongation on isolated left atria of rats' hearts in vitro; design: species or system rat
Method: In this test model it is determined to what extent the Kv1.5-blocking substances of Formula I result in a prolongation of the functional refractory period in the left atrium of rats. The refractory period is the minimum possible elapsed time between the basic stimulus and additional stimulus in which a renewed contraction can be triggered. The extent of the prolongation of the functional refractory period is a measurement of the antiarrhythmic effectiveness of the substances according to the invention. The functional refractory period is determined by testing on the electrically stimulated preparation at what elapsed time from the preceding contraction a renewed contraction can be triggered by additional electrical stimuli.
The hearts were removed from freshly sacrificed rats (Sprague-Dawley, Charles-River, Germany). The left atria were isolated and fastened to force transducers in a temperature-controlled (30° C.), gasified (O2 95%, CO2 5%) organ bath which was filled with modified Tyrode solution (all values in mM: NaCl 137; KCl 2.7; CaCl2 1.8; MgCl2 0.8; NaHCO3 11.9; NaH2PO4 0.6; glucose 5). In order to trigger regular contractions, the preparations were electrically stimulated (rectangular pulses, pulse magnitude 3.5× threshold stimulus, pulse width 1.5 ms, frequency 1 Hz). Initially, the initial value of the functional refractory period was determined by applying extra pulses in addition to the basic stimulus, the elapsed time from the preceding basic stimulus being shortened until no further additional contraction could be triggered. Then the cumulative addition of increasing concentrations (0.1-32 μM) of the substances of Formula I took place at intervals of 20 min. each, the refractory period being determined again in each case 18 min. after the addition had taken place. Before the measurement, stock solutions of the test substances (3.2 and 0.32 mM in 100% DMSO) were prepared. In order to achieve the desired final concentrations of the substances (0.1-32 μM) in the organ bath (volume 25 or 100 ml), corresponding volumes of these stock solutions were then poured into the organ bath.
In each case the prolongation of the functional refractory period (FRP) in the left atrium of the rats' hearts in milliseconds observed after the addition of 10 or 32 μM of the respective substance of Formula I to the atrial preparations was given as characteristic variable.

[2] = biological target: T1, Kv1.3-potassium channel (Homo sapiens, UniProt P22001); assay: Kv1.3-potassium channel-blocking effect in vitro (membrane potential-sensitive dye fluorescence in transfected CHO cells); format: cell-based; conditions: 10 μM test substance; CHO cells transfected with Kv1.3; relative to margatoxin
T1 construct: expressed in transfected cells; host or cells: CHO (Chinese hamster ovary) cells, stably transfected with a Kv1.3 plasmid
Excerpt: In this test model, known ovary cells of the Chinese hamster (=CHO) are used which are stably transfected with the Kv1.3-potassium channel The blockade of the cell-inherent Kv1.3-potassium channel activity in the transfected cells is accompanied by a positive shift in the membrane potential from approx. −40 mV to −30 mV, whereas in the wild-type CHO cells investigated in parallel no significant shift in the membrane potential is triggered. A change in the membrane potential is thus connected to the reduction in the Kv1.3-potassium channel activity. By blocking the Kv1.3-potassium channels e.g. with substances of Formula I and the resulting change in the membrane potential, an accumulation of a membrane potential-sensitive fluorescent dye in intracellular compartments of the ovary cells and ultimately increasing fluorescence occurs. The change in the membrane potential of the ovary cells is therefore measured indirectly via the increase in fluorescence of the membrane potential-sensitive dyes.
The cells were transfected with the Kv1.3 plasmid in known manner with a commercially obtainable transfection reagent (DMRIE-C from Gibco BRL, Germany). The successful transfection was verified by means of immunofluorescence and by “patch-clamp” investigations of the potassium ion current. The fluorescence measurements were performed on a Tecan Safire fluorescence reader from Tecan, Germany. In each case, the increase in the fluorescent intensity caused by the blockade of the Kv1.3-potassium channels in the ovary cells with substances of Formula I in a concentration of 10 μM was determined as characteristic variable. The increase in the fluorescent intensity was given in each case in percent (%) compared with an increase in the fluorescent intensity caused by the reference substance margatoxin. Margatoxin is known as a selective Kv1.3-potassium channel blocker (see e.g. M. Garcia-Calvo et al., J. Biol. Chem. 268 (1993) 18866-18874).

T1 sequence (P22001 whole entry): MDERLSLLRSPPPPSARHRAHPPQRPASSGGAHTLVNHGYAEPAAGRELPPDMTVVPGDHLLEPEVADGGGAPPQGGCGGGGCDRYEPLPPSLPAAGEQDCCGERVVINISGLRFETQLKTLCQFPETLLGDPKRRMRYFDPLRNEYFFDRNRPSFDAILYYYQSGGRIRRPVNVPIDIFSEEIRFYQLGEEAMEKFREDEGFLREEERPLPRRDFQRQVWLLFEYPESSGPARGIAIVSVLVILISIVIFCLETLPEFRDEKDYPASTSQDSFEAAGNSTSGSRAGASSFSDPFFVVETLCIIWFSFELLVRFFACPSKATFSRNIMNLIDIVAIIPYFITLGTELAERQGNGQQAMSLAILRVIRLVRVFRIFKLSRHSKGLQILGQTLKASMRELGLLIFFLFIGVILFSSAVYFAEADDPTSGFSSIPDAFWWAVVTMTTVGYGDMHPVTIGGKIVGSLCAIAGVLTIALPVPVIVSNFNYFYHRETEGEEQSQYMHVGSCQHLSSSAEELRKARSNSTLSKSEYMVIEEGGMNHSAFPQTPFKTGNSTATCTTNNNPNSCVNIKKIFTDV

`CCCc1ccc(S(=O)(=O)N[C@@H]2c3cc(CC(=O)N4CCN(Cc5ccccc5)CC4)ccc3OC(C)(C)[C@H]2O)cc1` [Example 1] was tested, and the FRP prolongation ([1]; 10 μM) was 15 (10 μM) ms.
`CC(C)CCN([C@@H]1c2cc(CC(=O)NCCN3CCCCC3)ccc2OC(C)(C)[C@H]1O)S(=O)(=O)c1ccc(I)cc1` [Example 3, (3S, 4R)-2-{3-Hydroxy-4-[(4-iodobenzenesulfonyl)-(3-methylbutyl)amino]-2,2-dimethylchroman-6-yl}-N-(2-piperidin-1-ylethyl)acetamide] was tested, and the FRP prolongation ([1]; 10 μM) was 15 (10 μM) ms.
`CCC(CC)CN([C@@H]1c2cc(CC(=O)N[C@@H]3CCN(Cc4ccccc4)C3)ccc2OC(C)(C)[C@H]1O)S(=O)(=O)c1cccc(OC)c1` [Example 4, (3S, 4R)-N-(1-Benzylpyrrolidin-3R-yl)-2-{4-[(2-Ethylbutyl)-(3-Methoxybenzenesulfonyl)Amino]-3 -Hydroxy-2,2-Dimethylchroman-6-yl}Acetamide] was tested, and the “Increase in the fluorescent intensity (% margatoxin)” value (“Increase … (% margatoxin)” for short) [2] was 41.8 % margatoxin.
With `CCCCN(CC)CCNC(=O)Cc1ccc2c(c1)[C@@H](N(CC(CC)CC)S(=O)(=O)c1ccc(I)cc1)[C@H](O)C(C)(C)O2` [Example 5, (3S, 4R)-N-[2-(Butylethylamino)Ethyl]-2-{4-[(2-Ethylbutyl)-(4-iodobenzenesulfonyl)Amino]-3-Hydroxy-2,2-dimethylchroman-6-yl)Acetamide] the “Increase … (% margatoxin)” value [2] was 39.8 % margatoxin.
With `COc1cccc(S(=O)(=O)N(CCC(C)C)[C@@H]2c3cc(CC(=O)NCC4CN(Cc5ccccc5)CCO4)ccc3OC(C)(C)[C@H]2O)c1` (stereo partly drawn) [Example 6] the “Increase … (% margatoxin)” value [2] was 59.9 % margatoxin and the FRP prolongation ([1]; 32 μM) was 16 (32 μM) ms.
`Cc1ccc(S(=O)(=O)N(CC2CC2)[C@@H]2c3cc(CC(=O)N4CCN(Cc5ccccc5)CC4)ccc3OC(C)(C)[C@H]2O)cc1` [Example 7, (3S, 4R)-N-{6-[2-(4-Benzylpiperazin-1-yl)-2-Oxoethyl]-3-Hydroxy-2,2-Dimethylchroman-4-yl}-N-Cyclopropylmethyl-4-Methylbenzenesulfonamide] was tested, and the FRP prolongation ([1]; 10 μM) was 13 (10 μM) ms.
In the case of `CCc1ccc(S(=O)(=O)N[C@@H]2c3cc(CC(=O)N4CCN(Cc5cccnc5)CC4)ccc3OC(C)(C)[C@H]2O)cc1` [Example 8, 4-Ethyl-N-((3S,4R)-3-Hydroxy-2,2-Dimethyl-6-{2-Oxo-2-[4-(pyridin-3-ylmethyl)piperazin-1-yl]ethyl}-3,4-dihydro-2H-Chromen-4-yl)Benzenesulfonamide], the FRP prolongation ([1]; 32 μM) is reported as 22 (32 μM) ms.
For `CCc1ccc(S(=O)(=O)NC2c3cc(CC(=O)N4CCN(Cc5ccccc5)CC4)ccc3OC(C)(C)C2O)cc1` (stereo not drawn) [Example 10, N-{6-[2-(4-benzyl-piperazin-1-yl)-2-oxo-ethyl]-3-hydroxy-2,2-dimethyl-chroman-4-yl}-4-ethyl-benzenesulfonamide], the FRP prolongation ([1]; 10 μM) was 24 (10 μM) ms.
